Where two headings read alike, the source gives them in different places.

Experiment [1] relates to 93R30B. The experiment can be described thus: Whole plant sugarbeet response to postemergence ALS-inhibiting herbicides. It counts as in vivo, Beta vulgaris L. The following applies: for R/S: 93R30B (SB) whole plant, postemergence, relative to Rel-1.
Experiment [2] relates to Sur. The experiment is described as above. The following applies: Sur whole plant, postemergence, relative to Rel-1. It counts as in vivo, Beta vulgaris L.
The test system of experiment [3] is Rel-1. The experiment is described as above. It counts as in vivo, Beta vulgaris L. The following applies: Rel-1 whole plant, herbicide applied postemergence.
Experiment [4] deals with EL-49. The experiment can be described thus: Shoot culture herbicide resistance (shoot injury and fresh weight on M20 media). It counts as cell-based, Beta vulgaris L. The following applies: EL-49; for IC50: herbicide concentration causing 50% injury to the shoot culture, 3 weeks, read-out: I50; for R/S: ratio of resistant to sensitive control (Rel-1) I50 values, shoot culture, 30240 min. How it is done: (§1) In step 7, shoot cultures were assessed for herbicide resistance by placing three small, consistently sized shoot cuttings on each plate of M20 media supplemented with logarithmically increasing concentrations of imidazolinone herbicide, sulfonylurea or triazolopyrimidine sulfonanilide ranging from 1 nM to 0.1 mM. 93R30 culture responses were compared to that of shoot cultures of a sensitive control (Rel-1) and a chlorsulfuron resistant, imidazolinone sensitive control (EL-49). Shoot cultures were maintained at 20 µE/m^2 s light intensity at 25°C for 3 weeks. Shoot culture was determined by rating shoot injury and fresh weight 3 weeks after transfer to selective media. Magnitude of herbicide resistance was determined by the ratio of resistant to sensitive I50 values (the herbicide concentration causing 50 percent injury).

The subject of experiment [5] is Rel-1. Described as above. It counts as cell-based, Beta vulgaris L. The following applies: Rel-1 sensitive control, herbicide concentration causing 50% injury to the shoot culture, 3 weeks, read-out: I50. How it is done: as §1
Experiment [6] concerns 93R30B. The description is as above. The format is cell-based, Beta vulgaris L. The following applies: for R/S / IC50: 93R30B; for R/S: ratio of resistant to sensitive control (Rel-1) I50 values, shoot culture; for R/S / level of resistance: 30240 min; for IC50: herbicide concentration causing 50% injury to the shoot culture, 3 weeks, read-out: I50; for level of resistance: 93R30B in shoot culture. How it is done: as §1

In experiment [7] the test system is Sir-13. The experiment can be described thus: Whole plant sugarbeet response to postemergence ALS-inhibiting herbicides. It counts as in vivo, Beta vulgaris L. The following applies: Sir-13 whole plant, postemergence, relative to Rel-1.
For experiment [8], the system named is ALS extracts from 93R30B. The experiment can be described thus: ALS enzyme activity assay in leaf extracts (acetoin colorimetry). The format is biochemical, Beta vulgaris L. The following applies: SB double mutant ALS enzyme in vitro. How it is done:
Standard procedures were utilized to partially purify ALS from rapidly expanding leaves of greenhouse-grown sugar beet plants (Hart, et al. Weed Science 40:378-383 (1992)). Extracts from heterozygous 93R30B F1 plants and Rel-1 S1 seed were assayed for ALS activity in the presence of logarithmically increasing concentrations of imazethapyr. ALS activity was determined from leaf extracts of REL-1 and 93R30B sugarbeet lines. Plants were grown in the greenhouse as described above to the four to six leaf stage. ALS activity from fresh extracts was determined in the presence of imazethapyr and chlorsulfuron at logarithmically increasing concentrations. The methods and procedures used were modified from those outlined by Ray (Plant Physiol. 75:827-831 (1984)) and Shaner, et al. (Plant Physiol. 76:545-546 (1984)). Ten g of sugarbeet leaves were homogenized in 40 ml cold homogenization buffer (0.1 M K2HPO4, pH 7.5, 1 mM sodium pyruvate, 0.5 mM MgCl2, 0.5 mM thiamine pyrophosphate, 10 µM of flavin adenine dinucleotide, 10% by vol glycerol) plus 2.5 g polyvinylpolypyrolidone. The homogenate was filtered through eight layers of cheesecloth and centrifuged at 27,000 g for 20 minutes. The supernatant was removed and brought to 50% saturation with (NH4)2SO4. […]
(§2) ALS activity is measured by adding 0.2 ml of enzyme preparation (diluted 3:1 with resuspension buffer) to 1.3 ml of reaction buffer (25 mM K2HPO4, pH 7.0, 0.625 mM MgCl2, 25 mM sodium pyruvate, 0.625 mM thiamine pyrophosphate, 1.25 µM flavin adenine dinucleotide) and incubated at 35°C for 1 hour. […]
Purchased acetoin was used as a standard for the colorimetric reaction. Acetoin concentrations were determined by measuring the absorption of the reaction solution at 530 nm. […] Protein concentrations of the extracts was determined by the method of Bradford (Anal. Biochem. 72:248-254 (1976)) using bovine serum albumin for the standard curve. […]

In experiment [9] the test system is ALS enzyme from Sir-13. The experiment is described as above. The format is biochemical, Beta vulgaris L. The following applies: Sir-13 single mutant ALS enzyme in vitro.
Experiment [10] deals with ALS enzyme from Sur. The description is as above. It counts as biochemical, Beta vulgaris L. The following applies: Sur single mutant ALS enzyme in vitro. How it is done:
Standard procedures were utilized to partially purify ALS from rapidly expanding leaves of greenhouse-grown sugar beet plants (Hart, et al. Weed Science 40:378-383 (1992)). Extracts from heterozygous 93R30B F1 plants and Rel-1 S1 seed were assayed for ALS activity in the presence of logarithmically increasing concentrations of imazethapyr. ALS activity was determined from leaf extracts of REL-1 and 93R30B sugarbeet lines. Plants were grown in the greenhouse as described above to the four to six leaf stage. ALS activity from fresh extracts was determined in the presence of imazethapyr and chlorsulfuron at logarithmically increasing concentrations. […]
as §2
Purchased acetoin was used as a standard for the colorimetric reaction. Acetoin concentrations were determined by measuring the absorption of the reaction solution at 530 nm. […] Protein concentrations of the extracts was determined by the method of Bradford (Anal. Biochem. 72:248-254 (1976)) using bovine serum albumin for the standard curve.

As to `COCc1cnc(C2=NC(C)(C(C)C)C(=O)N2)c(C(=O)O)c1` (centres unmarked) [AC299,263], the R/S in [1] is recorded as over 250 X; in experiment [2], 4 X; in experiment [4] it was 3X; in experiment [6], 1400X; in experiment [7], 130 X. Moreover, the I50 in experiment [3] is 1.1 g ha^-1. Besides, the IC50 in [4] (Beta vulgaris, 504 h) came out at 0.07 µM; in experiment [5] (Beta vulgaris, 504 h), 0.03 µM; in [6] (Beta vulgaris, 504 h), 40 µM.

Consider `COc1nc(C)nc(NC(=O)NS(=O)(=O)c2ccccc2Cl)n1` [Chlorsulfuron], for which the R/S in experiment [1] was 20 X; in [2], over 1000 X; in [2] (listed as chlorsulfuron), over 1000 X; in [4], 10000X; in [6], 10000X; in experiment [7], 1 X. Besides, the “reduction of whole plant resistance of the SB double mutant” value in experiment [1] (SB double mutant compared with Sur single mutant, whole plant) is recorded as “more than 50 fold”. Also, the I50 in experiment [3] was 0.07 g ha^-1. For the same compound, the IC50 in experiment [4] (Beta vulgaris, 504 h) stood at 25 µM; in experiment [5] (Beta vulgaris, 504 h), 0.0025 µM; in [6] (Beta vulgaris, 504 h), 25 µM. In addition, in experiment [6], the level of resistance was 10,000 fold.

Turning to `Cc1ccn2nc(S(=O)(=O)Nc3c(F)cccc3F)nc2n1` [Flumetsulam], the IC50 in experiment [4] (Beta vulgaris, 504 h) came out at 1.1 µM; in experiment [5] (Beta vulgaris, 504 h), 0.028 µM; in experiment [6] (Beta vulgaris, 504 h), 1.7 µM. For the same compound, the R/S in experiment [4] is 40X; in experiment [6] it was 60X. This compound also displayed a level of resistance in experiment [6] of 60 fold. Moreover, the “resistance of the ALS enzyme” value in [8] worked out at 200 X; in experiment [9], 3 X; in experiment [10], 50 X.

Regarding `CC(C)C1(C)N=C(c2nc3ccccc3cc2C(=O)O)NC1=O` (centres unmarked) [Imazaquin], the IC50 was determined as 0.04 µM in experiment [4] (Beta vulgaris, 504 h); 0.04 µM in experiment [5] (Beta vulgaris, 504 h); 16 µM in experiment [6] (Beta vulgaris, 504 h). For the same compound, the R/S amounted to 1X in experiment [4] and 400X in experiment [6].

`Cc1cc(C)nc(NC(=O)NS(=O)(=O)c2ccccc2C(=O)O)n1` [Sulfometuron]: the R/S is recorded as 4X in experiment [1], 23 X in experiment [2] and 1 X in experiment [7]. In [3], this compound displayed an I50 of 0.2 g ha^-1.

Consider Imazamethabenzmethyl, for which the IC50 in [4] was 20 µM; in experiment [5] it was 0.8 µM; in experiment [6] it was over 100 µM. The results for the R/S in [4] and in experiment [6] were 25X and over 125X, respectively.

These data come from patent EP0960190B1, “IMI[…] RESISTANT SUGAR BEET PLANTS” (Michigan State University, priority 1996, dated 1998).
